# Columns and labels:
# Assay type in all cases: functional
# [1] = tested on: SK-MEL-28; assay: Cytotoxicity against human SK-MEL-28 cells assessed as growth inhibition after 48 hrs by sulforhodamine B assay; conditions: SK-MEL-28, 48 h
# [2] = tested on: OVCAR-5; assay: Cytotoxicity against human OVCAR5 cells assessed as cell growth at 0.01 uM after 48 hrs by sulforhodamine B assay relative to control; conditions: OVCAR-5, 48 h, read-out: Activity
# [3] = tested on: OVCAR-4; assay: Cytotoxicity against human OVCAR4 cells assessed as cell growth at 0.01 uM after 48 hrs by sulforhodamine B assay relative to control; conditions: OVCAR-4, 48 h, read-out: Activity
# [4] = tested on: MDA-MB-435; assay: Cytotoxicity against human MDA-MB-435 cells assessed as cell growth at 0.01 uM after 48 hrs by sulforhodamine B assay relative to control; conditions: MDA-MB-435, 48 h, read-out: Activity
# [5] = tested on: HCT-116; assay: Cytotoxicity against human HCT116 cells assessed as cell growth at 0.01 uM after 48 hrs by sulforhodamine B assay relative to control; conditions: HCT-116, 48 h, read-out: Activity
# [6] = tested on: NCI-H522; assay: Cytotoxicity against human NCI-H522 cells assessed as cell growth at 0.01 uM after 48 hrs by sulforhodamine B assay relative to control; conditions: NCI-H522, 48 h, read-out: Activity
# [7] = tested on: K562; assay: Cytotoxicity against human K562 cells assessed as cell growth at 0.01 uM after 48 hrs by sulforhodamine B assay relative to control; conditions: K562, 48 h, read-out: Activity
# [8] = tested on: HL-60(TB); assay: Cytotoxicity against human HL-60(TB) cells assessed as cell growth at 0.01 uM after 48 hrs by sulforhodamine B assay relative to control; conditions: HL-60, 48 h, read-out: Activity
# [9] = tested on: HL-60(TB); assay: Cytotoxicity against human HL-60(TB) cells assessed as cell growth at 0.1 uM after 48 hrs by sulforhodamine B assay relative to control; conditions: HL-60, 48 h, read-out: Activity
# [10] = tested on: K562; assay: Cytotoxicity against human K562 cells assessed as cell growth at 0.1 uM after 48 hrs by sulforhodamine B assay relative to control; conditions: K562, 48 h, read-out: Activity
# [11] = tested on: A549; assay: Cytotoxicity against human A549/ATCC cells assessed as cell growth at 0.1 uM after 48 hrs by sulforhodamine B assay relative to control; conditions: A549, 48 h, read-out: Activity
# [12] = tested on: HT-29; assay: Cytotoxicity against human HT-29 cells assessed as cell growth at 0.1 uM after 48 hrs by sulforhodamine B assay relative to control; conditions: HT-29, 48 h, read-out: Activity
# [13] = tested on: KM12; assay: Cytotoxicity against human KM12 cells assessed as cell growth at 0.1 uM after 48 hrs by sulforhodamine B assay relative to control; conditions: KM12, 48 h, read-out: Activity
# [14] = tested on: UACC-62; assay: Cytotoxicity against human UACC62 cells assessed as cell growth at 0.1 uM after 48 hrs by sulforhodamine B assay relative to control; conditions: UACC-62, 48 h, read-out: Activity
# [15] = tested on: IGROV-1; assay: Cytotoxicity against human IGROV1 cells assessed as cell growth at 0.1 uM after 48 hrs by sulforhodamine B assay relative to control; conditions: IGROV-1, 48 h, read-out: Activity
# [16] = tested on: UO-31; assay: Cytotoxicity against human UO31 cells assessed as cell growth at 0.1 uM after 48 hrs by sulforhodamine B assay relative to control; conditions: UO-31, 48 h, read-out: Activity
# [17] = tested on: PC-3; assay: Cytotoxicity against human PC3 cells assessed as cell growth at 0.1 uM after 48 hrs by sulforhodamine B assay relative to control; conditions: PC-3, 48 h, read-out: Activity
# [18] = tested on: HOP-62; assay: Cytotoxicity against human HOP62 cells assessed as cell growth at 1 uM after 48 hrs by sulforhodamine B assay relative to control; conditions: HOP-62, 48 h, read-out: Activity
# [19] = tested on: NCI-H226; assay: Cytotoxicity against human NCI-H226 cells assessed as cell growth at 1 uM after 48 hrs by sulforhodamine B assay relative to control; conditions: NCI-H226, 48 h, read-out: Activity
# [20] = tested on: HCT-15; assay: Cytotoxicity against human HCT15 cells assessed as cell growth at 1 uM after 48 hrs by sulforhodamine B assay relative to control; conditions: HCT-15, 48 h, read-out: Activity
# [21] = tested on: SF-268; assay: Cytotoxicity against human SF268 cells assessed as cell growth at 1 uM after 48 hrs by sulforhodamine B assay relative to control; conditions: SF-268, 48 h, read-out: Activity
# [22] = tested on: IGROV-1; assay: Cytotoxicity against human IGROV1 cells assessed as cell growth at 1 uM after 48 hrs by sulforhodamine B assay relative to control; conditions: IGROV-1, 48 h, read-out: Activity
# [23] = tested on: TK-10; assay: Cytotoxicity against human TK10 cells assessed as cell growth at 1 uM after 48 hrs by sulforhodamine B assay relative to control; conditions: TK-10, 48 h, read-out: Activity
# [24] = tested on: MCF7; assay: Cytotoxicity against human MCF7 cells assessed as cell growth at 1 uM after 48 hrs by sulforhodamine B assay relative to control; conditions: MCF7, 48 h, read-out: Activity
# [25] = tested on: BT-549; assay: Cytotoxicity against human BT549 cells assessed as cell growth at 1 uM after 48 hrs by sulforhodamine B assay relative to control; conditions: BT-549, 48 h, read-out: Activity
# [26] = tested on: SF-268; assay: Cytotoxicity against human SF268 cells assessed as cell growth at 10 uM after 48 hrs by sulforhodamine B assay relative to control; conditions: SF-268, 48 h, read-out: Activity
# [27] = tested on: OVCAR-5; assay: Cytotoxicity against human OVCAR5 cells assessed as cell growth at 10 uM after 48 hrs by sulforhodamine B assay relative to control; conditions: OVCAR-5, 48 h, read-out: Activity
# [28] = tested on: 786-0; assay: Cytotoxicity against human 786-0 cells assessed as cell growth at 10 uM after 48 hrs by sulforhodamine B assay relative to control; conditions: 786-0, 48 h, read-out: Activity
# [29] = tested on: UO-31; assay: Cytotoxicity against human UO31 cells assessed as cell growth at 10 uM after 48 hrs by sulforhodamine B assay relative to control; conditions: UO-31, 48 h, read-out: Activity
# [30] = tested on: UACC-257; assay: Cytotoxicity against human UACC257 cells assessed as cell growth at 100 uM after 48 hrs by sulforhodamine B assay relative to control; conditions: UACC-257, 48 h, read-out: Activity
# [31] = tested on: IGROV-1; assay: Cytotoxicity against human IGROV1 cells assessed as cell growth at 100 uM after 48 hrs by sulforhodamine B assay relative to control; conditions: IGROV-1, 48 h, read-out: Activity
# [32] = tested on: OVCAR-4; assay: Cytotoxicity against human OVCAR4 cells assessed as cell growth at 100 uM after 48 hrs by sulforhodamine B assay relative to control; conditions: OVCAR-4, 48 h, read-out: Activity
# [33] = tested on: SK-OV-3; assay: Cytotoxicity against human SKOV3 cells assessed as cell growth at 100 uM after 48 hrs by sulforhodamine B assay relative to control; conditions: SK-OV-3, 48 h, read-out: Activity
# [34] = tested on: UO-31; assay: Cytotoxicity against human UO31 cells assessed as cell growth at 100 uM after 48 hrs by sulforhodamine B assay relative to control; conditions: UO-31, 48 h, read-out: Activity
# [35] = tested on: PC-3; assay: Cytotoxicity against human PC3 cells assessed as cell growth at 100 uM after 48 hrs by sulforhodamine B assay relative to control; conditions: PC-3, 48 h, read-out: Activity
# [36] = tested on: DU-145; assay: Cytotoxicity against human DU145 cells assessed as cell growth at 100 uM after 48 hrs by sulforhodamine B assay relative to control; conditions: DU-145, 48 h, read-out: Activity
SMILES,TGI [1] [µM],growth at 0.01 µM [2] [%],growth at 0.01 µM [3] [%],growth at 0.01 µM [4] [%],growth at 0.01 µM [5] [%],growth at 0.01 µM [6] [%],growth at 0.01 µM [7] [%],growth at 0.01 µM [8] [%],growth at 0.1 µM [9] [%],growth at 0.1 µM [10] [%],growth at 0.1 µM [11] [%],growth at 0.1 µM [12] [%],growth at 0.1 µM [13] [%],growth at 0.1 µM [14] [%],growth at 0.1 µM [15] [%],growth at 0.1 µM [16] [%],growth at 0.1 µM [17] [%],growth at 1 µM [18] [%],growth at 1 µM [19] [%],growth at 1 µM [20] [%],other results
COc1ccc(C(=O)/C=C/c2cc(-c3ccc(OC)c(OC)c3)n[nH]2)cc1OC,4.82,88,106,89,94,91,101,101,101,97,93,96,100,96,104,91,95,73,77,53,GI50 [1]: 1.82 µM; growth at 1 µM [21]: 74%; growth at 1 µM [22]: 94%; growth at 1 µM [23]: 106%; growth at 1 µM [24]: 49%; growth at 1 µM [25]: 75%; growth at 10 µM [26]: -1%; growth at 10 µM [27]: -30%; growth at 10 µM [28]: -32%; growth at 10 µM [29]: -52%; growth at 100 µM [30]: -70%; growth at 100 µM [31]: -2%; growth at 100 µM [32]: -40%; growth at 100 µM [33]: -8%; growth at 100 µM [34]: -68%; growth at 100 µM [35]: -4%; growth at 100 µM [36]: -100%
COc1cc(-c2cc(/C=C/C(=O)c3ccc(N)cc3)[nH]n2)cc(OC)c1OC,4.08,90,85,90,95,92,100,99,99,94,94,102,98,99,108,91,94,86,88,60,GI50 [1]: 1.86 µM; LC50 [1]: 8.93 µM; growth at 1 µM [21]: 81%; growth at 1 µM [22]: 100%; growth at 1 µM [23]: 102%; growth at 1 µM [24]: 66%; growth at 1 µM [25]: 73%; growth at 10 µM [26]: -55%; growth at 10 µM [27]: -66%; growth at 10 µM [28]: -19%; growth at 10 µM [29]: -84%; growth at 100 µM [30]: -93%; growth at 100 µM [31]: -49%; growth at 100 µM [32]: -96%; growth at 100 µM [33]: -98%; growth at 100 µM [34]: -93%; growth at 100 µM [35]: -39%; growth at 100 µM [36]: -98%
COc1ccc(C(=O)/C=C/c2cc(-c3cc(OC)c(OC)c(OC)c3)n[nH]2)cc1OC,3.34,101,95,95,99,83,96,103,94,92,98,105,92,95,96,87,95,77,89,65,LC50 [1]: 6.25 µM; growth at 1 µM [21]: 89%; growth at 1 µM [22]: 96%; growth at 1 µM [23]: 71%; growth at 1 µM [24]: 31%; growth at 1 µM [25]: 76%; growth at 10 µM [26]: -60%; growth at 10 µM [27]: -93%; growth at 10 µM [28]: -88%; growth at 10 µM [29]: -97%; growth at 100 µM [30]: -97%; growth at 100 µM [31]: -73%; growth at 100 µM [32]: -82%; growth at 100 µM [33]: -98%; growth at 100 µM [34]: -96%; growth at 100 µM [35]: -95%; growth at 100 µM [36]: -89%
COc1ccc(C(=O)/C=C/c2cc(-c3cc(OC)c(OC)c(OC)c3)n[nH]2)cc1,4.42,99,91,99,100,83,97,115,108,102,101,102,94,100,102,96,95,87,92,72,LC50 [1]: 9.23 µM; growth at 1 µM [21]: 87%; growth at 1 µM [22]: 101%; growth at 1 µM [23]: 92%; growth at 1 µM [24]: 57%; growth at 1 µM [25]: 93%; growth at 10 µM [26]: -35%; growth at 10 µM [27]: -70%; growth at 10 µM [28]: -59%; growth at 10 µM [29]: -93%; growth at 100 µM [30]: -4%; growth at 100 µM [31]: -29%; growth at 100 µM [32]: -15%; growth at 100 µM [33]: -41%; growth at 100 µM [34]: -79%; growth at 100 µM [35]: 1%; growth at 100 µM [36]: -2%
COc1cc(C(=O)/C=C/c2cc(-c3ccc4c(c3)OCO4)n[nH]2)cc(OC)c1OC,4.18,98,97,96,101,97,86,99,98,84,98,97,93,97,87,82,95,93,70,77,GI50 [1]: 1.92 µM; LC50 [1]: 9.13 µM; growth at 1 µM [21]: 89%; growth at 1 µM [22]: 83%; growth at 1 µM [23]: 109%; growth at 1 µM [24]: 53%; growth at 1 µM [25]: 89%; growth at 10 µM [26]: -12%; growth at 10 µM [27]: -2%; growth at 10 µM [28]: -84%; growth at 10 µM [29]: -96%; growth at 100 µM [30]: -97%; growth at 100 µM [31]: -90%; growth at 100 µM [32]: -100%; growth at 100 µM [33]: -98%; growth at 100 µM [34]: -95%; growth at 100 µM [35]: -84%; growth at 100 µM [36]: -97%

# Reference: ChEMBL document CHEMBL4138123, “Design, synthesis and biological evaluation of novel pyrazolochalcones as potential modulators of PI3K/Akt/mTOR pathway and inducers of apoptosis in breast cancer cells” (Eur J Med Chem, 2017)
